This is an account of results in US10004222B2, “Small molecule ice recrystallization inhibitors and methods of use thereof” (THE UNIVERSITY OF OTTAWA, priority 2012, dated 2018).

SMILES strings stand for the structures.

The series concerns CD34+ cells (hematopoietic stem cells). As to the kind of experiment: post-thaw viability of CD34+ cells of cryopreserved umbilical cord blood, flow cytometry. The format is cell-based, human. Conditions: for Post-Thaw Viab.: UCB Unit 27; for CD34+ cell viability compared with control: vs control that contained 10% DMSO only. On the procedure: Whole umbilical cord blood (UCB) should be stored at room temperature (15-25° C.) and processed within 48 hrs of collection. UCB is removed from collection bag and spilt in equal parts into 50 mL Falcon tubes. No more than 25 mL of UCB should be added per Falcon tube. UCB is diluted with 6% hetastarch (Hespan) to obtain a final concentration of 1% hetastarch and incubated for 10 minutes at room temperature. The tubes are then centrifuged at 50 g at 10° C. for 15-20 minutes, depending on volume. The centrifuge should not brake to stop. For total volumes of 30 mL, 15-17 minute centrifugation is utilized and for total volumes of 35 mL, 17-20 minute centrifugation is utilized. The supernatant and buffy coat (plasma and leukocytes) are removed carefully (not collecting RBCs) from the tubes and collected into new 50 mL Falcon tubes. These tubes are centrifuged at 400 g and 10° C. for 10 mins to pellet cells. The centrifuge brake can now be utilized. Plasma is removed and kept in new 50 mL Falcon tubes on ice. The cell pellets resuspended and combined in plasma to a total volume of 20 mL to generate leukocyte concentrate (LC). The LC is kept on ice for the duration of its use. Total mononuclear (CD45^+) and CD34^+ (hematopoetic stem cells) cell concentrations and viability are determined by flow cytometry (see Flow Cytometry procedure below). Aliquots of LC (50,000 CD34^+ cells) are utilized for cryopreservation experiments (see Cryopreservation Experiments procedure below).
Aliquots of LC (50,000 CD34^+ cells) are added to 2.0 mL cryovials. For each experiment, four cryovials are prepared (two for post-thaw viability analysis using flow cytometry and two for functionality analysis using the colony forming unit assay). Cryovials are kept on ice until placement in −80° C. freezer. Cryovials are centrifuged at 400 g and 10° C. for 5 minutes to pellet cells. After centrifugation, the time taken until placement in −80° C. freezer should not exceed 10 minutes. Supernatant is removed by aspiration or by decanting, but preferably by aspiration. Plasma (volume depends on desired cryosolution concentration) is added and cells are suspended by pipetting. Pre-made cryosolutions (see Cryosolutions) are added (volume depends on desired cryosolution concentration) and mixed by pipetting. Cryovials are placed in a Mr. Frosty® rate controlled freezing container which is then placed in a −80° C. freezer for 24 hours. By placing the cryovials in the freezing container, their contents undergo a cooling rate of about −1° C. per minute. After 24 hours, the cryovials are transferred to a liquid nitrogen dewar for storage until thawed for analysis.
Cryosolutions are prepared in distilled autoclaved water supplemented with 0.9% saline and 5% dextran for cryopreservation experiments and diluted with different volumes of plasma in cryovials depending on desired concentration of ice recrystallization inhibitor. N-(4-chlorophenyl)-D-gluconamide (4a) and N-(2-fluorophenyl)-D-gluconamide (2a) are prepared at 25 mM and N-(4-methoxyphenyl)-D-gluconamide (3a) and N-(2,6-difluorobenzyl)-D-gluconamide (1b) are prepared at 55 mM. 100, 50, 33 or 20 μL of 25 mM N-(4-chlorophenyl)-D-gluconamide (4a) or N-(2-fluorophenyl)-D-gluconamide (2a) are added to cryovials containing 50,000 CD34^+ cells suspended in 0, 50, 67, or 80 μL of plasma, respectively, for a final IRI concentration of 25, 12.5, 8 or 5 mM, respectively. 100, 50, 33 or 20 μL of 55 mM N-(4-methoxyphenyl)-D-gluconamide (3a) or N-(2,6-difluorobenzyl)-D-gluconamide (1b) are added to cryovials containing 50,000 CD34^+ cells suspended in 0, 50, 67, or 80 μL of plasma, respectively, for a final IRI concentration of […], 18 or 11 mM, respectively.
Total mononuclear cell (CD45+) and progenitor cell (CD34+) viability is assessed by flow cytometry using International Society of Hematotherapy and Graft Engineering (ISHAGE) guidelines (J. Hematother. Stem Cell Res. 1996, 5, 213-226). […]

As to `O=C(NCc1c(F)cccc1F)[C@H](O)[C@@H](O)[C@H](O)[C@H](O)CO` [(1b), N-(2,6-difluorobenzyl)-D-gluconamide], the “CD34+ cell viability compared with control” value is listed as “substantially similar to the control”. Besides, the “Post-Thaw Viab.” value (11 mM IRI) came to 57%.
For the molecule `O=C(Nc1ccccc1F)[C@H](O)[C@@H](O)[C@H](O)[C@H](O)CO` [(2a), N-(2-fluorophenyl)-D-gluconamide], the “CD34+ cell viability compared with control” value is “substantially similar to the control”. The “Post-Thaw Viab.” value (5 mM IRI) turned out to be 88%.
Take `COc1ccc(NC(=O)[C@H](O)[C@@H](O)[C@H](O)[C@H](O)CO)cc1` [(3a), N-(4-methoxyphenyl)-D-gluconamide]: the “CD34+ cell viability compared with control” value is recorded as “substantially similar to the control”. Also, the “Post-Thaw Viab.” value (11 mM IRI) worked out at 78%.
`O=C(Nc1ccc(Cl)cc1)[C@H](O)[C@@H](O)[C@H](O)[C@H](O)CO` [(4a), N-(4-chlorophenyl)-D-gluconamide]: the “CD34+ cell viability compared with control” value was “substantially similar to the control”. For the setting “5 mM IRI”, the “Post-Thaw Viab.” value came out at 88%.
